A word on the EC50: it is the concentration that produces a half-maximal response. The term IC50 denotes the concentration needed to halve the response being measured. A higher IC50 goes with a need for much substance.

In PubChem BioAssay AID179 (DTP/NCI, 2004) one finds EC50, IC50 and outcome data, which are given here for 69 compounds.

Values joined by “and” are separate entries in the source; they are usually repeats but may differ in a detail not shown here. Equal values may be shown once. Active and inactive are the calls of the source.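 The calls were made as follows: active = compounds giving half or more protection of infected cells from virus-caused growth loss, again on retest; inactive = the rest.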 Where a SMILES comes first, the peptide text is derived from it. The star is where a group is joined. Cbz = O=C(OCc1ccccc1)*; Boc = CC(C)(C)OC(=O)*; OBn = c1ccc(CO*)cc1

The subject of this experiment is CEM cells HIV-1 protection, formazan growth assay. Briefly: NCI AIDS Antiviral Assay. The conditions noted are these: for IC50: measured here: growth of uninfected CEM cells. An outline of the steps:
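Human CEM cells, uninfected and HIV-1-infected, received five drug concentrations, and growth was read by soluble formazan assay. Compounds giving at least 50% protection were retested; reproducible 100% protection defined confirmed active.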

On to `O=C1c2cc3c(cc2CC12Cc1cc4c(cc1C2)CCC4)CCC3`, for which the EC50 was more than 200 µM and the IC50 is more than 200 µM.
With `Cc1nc(-c2nc(C)c(C(=O)NN(C)C)s2)sc1C(=O)NN(C)C`, the EC50 was more than 70.8 µM and the 50% inhibitory concentration (IC50) was more than 70.8 µM.
Consider `CC(NC(=O)C(=O)N/N=C1\CC(c2ccccc2)Oc2ccccc21)c1ccccc1` (configuration not stated), for which the outcome was inactive.
With `CC(C)c1cc(=O)oc2c3c(ccc12)OC(C)(C)[C@H](OC(=O)C12CCC(C)(C(=O)O1)C2(C)C)[C@@H]3OC(=O)C12CCC(C)(C(=O)O1)C2(C)C` (some centres not stated), the EC50 is 0.324 µM and the IC50 turned out to be 33.9 µM.
`CC(=C(C(N)=O)C(N)=O)C1C=C(c2cccs2)CC(c2ccc(Cl)cc2)=C1O` (configuration not stated): the EC50 was more than 200 µM and the half-inhibitory concentration (IC50) is more than 100 µM.
As to `COc1cc(N)c2c(c1)SCC(=O)N2`, the EC50 is more than 200 µM and the IC50 was determined as 148 µM.
Consider `[N-]=[N+]=NC1CC(n2cc(C(OCC(F)(F)F)OCC(F)(F)F)c(=O)[nH]c2=O)OC1CO` (configuration not stated), for which the half-maximal effective concentration (EC50) stood at 25.1 µM and the concentration for half-maximal inhibition (IC50) stood at 107 µM.
With `Cc1ccc(S(=O)(=O)N/N=C/C=N/NS(=O)(=O)c2ccc(C)cc2)cc1`, the result was inactive.
As for `CNc1cc(C)ccc1S(=O)(=O)c1ccccc1[N+](=O)[O-]`, the EC50 is 0.219 µM and the IC50 amounted to 30.2 µM.
`C=CCC1C(=O)CC2(C)CC(=O)C(CC=C)C12C` (configuration not stated): the outcome was inactive.
In the case of `c1ccc2c3c([nH]c2c1)[C@H]1C2CCCCN2CN1CC3` (some centres not stated), the EC50 was more than 676 µM and the IC50 amounted to 214 µM.
As to `O=c1c(-c2ccccc2)c[nH]c2cc([N+](=O)[O-])c(/C(Cl)=C/c3ccccc3)cc12`, the result was inactive.
On the same count and under the same terms, then `COc1cccc(C(=O)N2CCc3ccccc32)c1OC`, with “inactive”.
For `CCOC(=O)/C(C#N)=C/c1cc2c3c(c1)CCCN3CCC2`, the EC50 was more than 100 µM and the IC50 is more than 100 µM.
Regarding `CC(C)C(=O)/C=C/c1ccc(Cl)cc1`, the outcome was inactive.
Same read-out and setting: then `COC(=O)C1CC2(c3ccccc3)C(=O)c3ccccc3N2O1` (configuration not stated), with “inactive”; and `O=C(O)/C(O)=C1/C=C(c2ccccc2)c2ccccc21`, with “inactive”.
As for `Cc1ccnc(NC(=S)Nc2cccc(Cl)c2)c1`, the EC50 is 57.5 µM and the concentration for half-maximal inhibition (IC50) was more than 200 µM.
For `O=C(Nc1ccc(Cl)c(Cl)c1)C(=O)C(C(=O)c1ccccc1-c1ccccc1)C1OC(=O)c2ccccc21` (configuration not stated), the EC50 is more than 66.1 µM and the concentration for half-maximal inhibition (IC50) was 29.5 µM.
For `[O]=[Sb]([OH])([OH])[c]1ccc(Br)cc1` the same measures were more than 200 µM and 35.5 µM.
Regarding `CO/N=C(\C)CCC#Cc1ccccc1C(=O)OC`, the EC50 was more than 200 µM and the IC50 is more than 200 µM.
With `Cc1ccccc1[P+](Cc1ccccc1)(c1ccccc1C)c1ccccc1C`, the EC50 is more than 20 µM and the IC50 worked out at 1.07 µM.
For `N#C/C(=C\c1cccc(N)c1)c1ccccc1`, the EC50 was more than 200 µM and the 50% inhibitory concentration (IC50) is 57.5 µM.
The corresponding values for `CC12CCC(C(=O)OC1=O)C2(C)C` (configuration not stated) are more than 200 µM and more than 200 µM.
For `O=C(ONC(=O)[C@H]1C2C=CC(C2)[C@@H]1C(=O)NOC(=O)c1ccccc1)c1ccccc1` the same measures were more than 200 µM and 5.37 µM.
The corresponding values for `CCN(CC)c1cc2oc(=O)cc(C)c2cc1NC(=O)c1cc([N+](=O)[O-])cc([N+](=O)[O-])c1` are more than 49 µM and more than 49 µM.
On to `C=CCN1CCC(O)(c2cc(C(=O)OCC)[nH]c2-c2cc(C)no2)C1` (configuration not stated), for which the EC50 is more than 200 µM and the half-inhibitory concentration (IC50) is more than 200 µM.
For the compound `COC(=O)C(CCCCNC(=O)OCc1ccccc1)NC(=O)C(CCC(=O)OCc1ccccc1)NC(=O)OC(C)(C)C` (configuration not stated) (Boc-Glu(OBn)-Lys(Cbz)-OMe; configuration not given here), the EC50 was more than 200 µM and the IC50 is more than 200 µM.
`Cc1cc(CO)c(O)c(CNCc2cc(C)cc(CO)c2O)c1`: the EC50 is more than 200 µM and the 50% inhibitory concentration (IC50) was determined as 8.71 µM.
For the compound `CNC(=O)NCCc1c[nH]c2ccccc12`, the EC50 was more than 200 µM and the concentration for half-maximal inhibition (IC50) was more than 200 µM.
`CCOC(=O)C1SC(=Nc2ccccc2)N=C1C` (configuration not stated): the result was inactive.
Regarding `Cc1ccc2c3c(nsc13)-c1ccccc1C2=O`, the EC50 was more than 53.7 µM and the IC50 is more than 53.7 µM.
On to `O=[N+]([O-])C(=C(N1CCOCC1)N1CCOCC1)/C(Cl)=C(\Cl)Br`, for which the EC50 was more than 200 µM and the 50% inhibitory concentration (IC50) worked out at 9.77 µM.
The corresponding values for `COc1cc2c(c(C)c1O)[C@H]1Cc3ccccc3[C@H]1O2` are more than 7.41 µM and more than 7.41 µM.
Regarding `O=C(O)CCSC(=S)Nc1ccc([N+](=O)[O-])cc1`, the result was inactive.
For `C=CCC1(c2ccccc2)Oc2cccnc2-n2cccc2C1=O` (configuration not stated), the EC50 is more than 200 µM and the IC50 was found to be 8.91 µM.
On to `Cc1ccc(-c2nc3ccccc3c(=O)n2NCC2(O)OCC(O)C(O)C2O)cc1` (configuration not stated), for which the result was inactive.
Turning to `CCOP(=O)(OCC)C(Cc1ccccc1)N=C(c1ccccc1)c1ccccc1` (configuration not stated), the EC50 was more than 200 µM and the IC50 came to 10.7 µM.
On to `Cc1ccc(S(=O)(=O)OC[C@H]2CC=CC[C@H]2COS(=O)(=O)c2ccc(C)cc2)cc1`, for which the EC50 was more than 200 µM and the IC50 was more than 200 µM.
For `COc1ccc(NCc2cccc3c(=O)c4ccc(Cl)cc4oc23)cc1`, the EC50 is 3.47 µM and the IC50 was 25.1 µM.
As to `COc1cc(NC=O)c2c(c1)SC(c1ccccc1)C(=O)N2` (configuration not stated), the EC50 was more than 200 µM and the IC50 turned out to be 56.2 µM.
The corresponding values for `CCOc1ccc2nc(NC(=O)C(=O)C(c3cnc4ccccc4n3)[N+](=O)[O-])sc2c1` (configuration not stated) are more than 155 µM and more than 155 µM.
For `CC(=O)Oc1ccccc1/C=C/C(=O)/C=C/c1ccccc1OC(C)=O` the same measures were more than 20 µM and 2.14 µM.
The corresponding values for `CCN(CC)c1cc2oc(=O)cc(C)c2cc1NC(=O)c1cc(N)cc(N)c1` are more than 100 µM and 19.5 µM.
Regarding `Clc1ccc2cccc3c2c1C1OC3c2ccccc21` (configuration not stated), the outcome was inactive.
In the case of `COc1ccc(/C=C/C(=O)c2sc(N)nc2C)cc1`, the EC50 was more than 912 µM and the IC50 amounted to 479 µM.
Take `CC(=O)CC[N+](C)(C)C`: the result was inactive.
`COC1=CC(=O)[C@@]2(OC)C(=O)c3c(cc4cc(O)c(C(O)OC)c(C)c4c3O)C(=O)[C@@]2(O)C1OC1OC(C)C(OC)C(OC)C1OC` (some centres not stated): the EC50 is more than 93.3 µM and the IC50 turned out to be 64.6 µM.
For `Cc1oc(N)c(C#N)c1C`, the outcome was inactive.
For the compound `CCOC(=O)/C(C(=S)Nc1ccccc1)=C(/N)N1CCCC1`, the EC50 was more than 200 µM and the concentration for half-maximal inhibition (IC50) came to 53.7 µM.
For `Cc1ccc2c(c1)[nH]c(=S)n2/C=C1\C(=O)Oc2ccccc2C1=O` the same measures were more than 200 µM and 36.3 µM.
As for `CCN1CCOC(c2ccccc2)C1c1ccccc1` (configuration not stated), the EC50 is more than 200 µM and the half-inhibitory concentration (IC50) was 129 µM.
With `CC(=O)OCC(OC(C)=O)C(OC(C)=O)C(OC(C)=O)C(=O)CNn1c(-c2ccccc2Cl)nc2ccccc2c1=O` (configuration not stated), the outcome was inactive.
Take `CC1OC(OC2C(CO)OC(O[C@H]3CC[C@@]4(C)C(=CC[C@H]5[C@@H]6C[C@@H]7O[C@](O)(CC[C@@H](C)COC8OC(CO)C(O)C(O)C8O)[C@@H](C)[C@@H]7[C@@]6(C)CC[C@@H]54)C3)C(OC3OC(C)C(O)C(O)C3O)C2O)C(O)C(O)C1O` (some centres not stated): the EC50 was more than 200 µM and the concentration for half-maximal inhibition (IC50) amounted to 1.86 µM.
For the compound `O=S1(=O)c2ccccc2N(c2ccccc2)c2nnnn21`, the EC50 was more than 79.4 µM and the IC50 was 33.1 µM.
With `O=C1Cc2c(-c3cccs3)cc(-c3ccccc3)nc2-c2ccccc2N1`, the EC50 was more than 200 µM and the 50% inhibitory concentration (IC50) was 46.8 µM.
The corresponding values for `CCC(C)C(NC(=O)CNC(=O)C(Cc1cnc[nH]1)NC(=O)C(NC(=O)C(CS)NC(=O)C(CCC(N)=O)NC(=O)C(NC(=O)C(NC(=O)C(CO)NC(=O)C(NC(=O)C(CC(N)=O)NC(=O)C(NC(=O)C(CS)NC(=O)C1CCCN1C(=O)CNC(=O)C(NC(=O)CN)C(C)O)C(C)O)C(C)C)C(C)O)C(C)C)C(C)O)C(=O)NC(CCCN=C(N)N)C(N)=O` (configuration not stated) (H-GTGPCTNVSTVQCTHGIR-NH2; configuration not given here) are more than 50.1 µM and more than 50.1 µM.
For `CC1(c2ccc(Cl)cc2)c2ccccc2C(=O)N1CCCN1C(=O)c2ccccc2C1=O` (configuration not stated) the same measures were more than 200 µM and 195 µM.
For `CCOC(=O)c1cc2c([nH]1)c(O)cc1c2ccn1Cc1ccccc1` the same measures were more than 200 µM and 29.5 µM.
In the case of `CCOC(=O)C1C(c2ccc([N+](=O)[O-])cc2)NC(c2ccc([N+](=O)[O-])cc2)C(C(=O)OC)S1(=O)=O` (configuration not stated), the EC50 was more than 3.98 µM and the concentration for half-maximal inhibition (IC50) was more than 3.98 µM.
Regarding `CC(=O)N(O)CCCCCNC(=O)CCC(=O)N(O)CCCCCNC(=O)CCC(=O)N(O)CCCCCN`, the EC50 was more than 110 µM; the half-inhibitory concentration (IC50) was 4.57 µM and 3.63 µM.
`CN1NC(C2NN(C)C(=O)N(C)N2)NN(C)C1=O`: the EC50 was more than 977 µM and the IC50 turned out to be 33.1 µM.
For `O=C(O)c1c2c(cc3c(=O)c4ccccc4[nH]c13)CCCC2` the same measures were more than 617 µM and 85.1 µM.
For `Cc1ccc(C)c(C(=O)c2ccccc2)c1C(=O)O` the same measures were more than 200 µM and more than 200 µM.
For the compound `C/C(=N\NS(=O)(=O)c1ccccc1)c1ccc[n+]([O-])n1`, the result was inactive.
Consider `COc1ccc(C2C(=O)c3ccc(OC)cc3OC2c2ccccc2)cc1` (configuration not stated), for which the EC50 was more than 200 µM and the IC50 was found to be 87.1 µM.
For `NC(Cc1c2ccccc2cc2ccccc12)C(=O)O` (configuration not stated), the EC50 was more than 200 µM and the concentration for half-maximal inhibition (IC50) amounted to 102 µM.
For `CCOC(=O)c1[nH]n(-c2ccccc2)c(=O)c1/C=N/C(=S)NCc1ccccc1`, the EC50 was more than 200 µM and the IC50 was determined as 44.7 µM.
On to `Cc1nc2c(=S)n(C)ncc2[nH]1`, for which the EC50 was 30.9 µM and the IC50 was more than 100 µM.
